Measurements from patent US10208089B2, “Modulation of complement activity” (priority 2014, dated 2019).
Starred links: 1 amine or outer side, 2 acyl side, 3 side chain; linkers in the order of their positions; H or OH if unused. Positions of bridges follow the written chain, without caps; N, C: chain ends. Non-standard residues stand in square brackets, D forms with d. Residues, ends and D or L forms follow the SMILES beside them. Trp(7-aza) = N[C@@H](Cc1c[nH]c2ncccc12)C(=O)O; mXylylene = c1cc(C[*:1])cc(C[*:2])c1; dChg = N[C@@H](C(=O)O)C1CCCCC1; Chg = N[C@H](C(=O)O)C1CCCCC1; Phg = N[C@H](C(=O)O)c1ccccc1; NMeS = CN[C@@H](CO)C(=O)O; Nva = CCC[C@H](N)C(=O)O

Biological target: C5 (Homo sapiens, UniProt P01031)
Sequence (P01031 19-1676): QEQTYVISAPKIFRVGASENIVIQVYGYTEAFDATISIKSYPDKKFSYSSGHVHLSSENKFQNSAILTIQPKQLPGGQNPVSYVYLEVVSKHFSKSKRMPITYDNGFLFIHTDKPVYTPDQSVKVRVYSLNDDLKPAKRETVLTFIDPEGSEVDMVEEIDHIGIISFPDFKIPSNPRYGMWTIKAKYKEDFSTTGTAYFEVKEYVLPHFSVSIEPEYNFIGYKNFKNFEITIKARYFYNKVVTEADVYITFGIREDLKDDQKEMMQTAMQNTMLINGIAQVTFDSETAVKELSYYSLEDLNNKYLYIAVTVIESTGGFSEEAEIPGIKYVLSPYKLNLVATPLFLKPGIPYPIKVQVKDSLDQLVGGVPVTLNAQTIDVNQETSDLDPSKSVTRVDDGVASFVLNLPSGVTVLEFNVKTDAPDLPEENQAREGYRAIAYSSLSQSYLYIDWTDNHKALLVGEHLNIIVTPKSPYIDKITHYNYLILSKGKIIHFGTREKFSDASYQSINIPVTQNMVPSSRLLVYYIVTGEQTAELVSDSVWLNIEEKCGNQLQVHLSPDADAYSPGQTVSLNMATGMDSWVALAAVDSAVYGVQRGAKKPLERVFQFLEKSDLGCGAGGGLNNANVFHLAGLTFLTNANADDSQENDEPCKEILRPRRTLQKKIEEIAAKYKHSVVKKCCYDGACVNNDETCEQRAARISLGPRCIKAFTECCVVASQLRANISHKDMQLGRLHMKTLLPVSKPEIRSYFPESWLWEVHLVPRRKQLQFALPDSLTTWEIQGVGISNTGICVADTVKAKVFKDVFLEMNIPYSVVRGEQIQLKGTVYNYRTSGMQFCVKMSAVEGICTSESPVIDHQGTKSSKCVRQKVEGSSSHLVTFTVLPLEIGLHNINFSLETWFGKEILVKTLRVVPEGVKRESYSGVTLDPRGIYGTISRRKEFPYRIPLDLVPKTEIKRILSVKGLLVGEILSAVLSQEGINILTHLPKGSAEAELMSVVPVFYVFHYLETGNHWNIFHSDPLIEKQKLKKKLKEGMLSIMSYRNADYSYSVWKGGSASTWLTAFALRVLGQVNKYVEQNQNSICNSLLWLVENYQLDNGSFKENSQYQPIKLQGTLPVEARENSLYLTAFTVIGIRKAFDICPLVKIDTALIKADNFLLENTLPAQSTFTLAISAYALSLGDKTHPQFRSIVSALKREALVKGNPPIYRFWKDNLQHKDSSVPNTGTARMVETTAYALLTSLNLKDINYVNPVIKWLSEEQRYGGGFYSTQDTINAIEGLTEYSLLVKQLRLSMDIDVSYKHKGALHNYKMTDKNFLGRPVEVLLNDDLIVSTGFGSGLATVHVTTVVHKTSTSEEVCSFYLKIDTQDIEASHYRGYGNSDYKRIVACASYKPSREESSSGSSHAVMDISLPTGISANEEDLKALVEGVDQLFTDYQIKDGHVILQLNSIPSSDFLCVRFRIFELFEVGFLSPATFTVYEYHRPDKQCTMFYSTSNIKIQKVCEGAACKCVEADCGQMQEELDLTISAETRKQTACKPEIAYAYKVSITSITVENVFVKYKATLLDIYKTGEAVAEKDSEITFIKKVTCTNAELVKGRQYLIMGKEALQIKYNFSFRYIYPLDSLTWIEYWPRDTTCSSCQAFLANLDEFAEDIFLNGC
Experiment: Human hemolysis assay (RBC lysis assay using complete human sera)
Assay type: cell-based
Parameters: with complete human sera (Complement Technology, Tyler Tex.) and polypeptides; tissue Complement Technology, Tyler Tex; host or cells: complete human serum
[1] = inhibition of lysis of antibody-sensitized sheep erythrocytes, complete human sera

SMILES | IC50 [1] [µM] | IC50 (7-azatryptophan variant polypeptides of R3008, inhibition of red blood cell lysis) [µM] | IC50 (7-azatryptophan variant polypeptides of R3002, inhibition of red blood cell lysis) [µM]
CCC[C@H](NC(=O)[C@@H]1CSCc2cccc(c2)CSC[C@H](NC(=O)[C@@H](NC(C)=O)C2CCCCC2)C(=O)N[C@@H](c2ccccc2)C(=O)N[C@@H]([C@@H](C)O)C(=O)N[C@@H](Cc2c[nH]c3ncccc23)C(=O)N[C@@H](CCC(=O)O)C(=O)N[C@@H](Cc2ccc(O)cc2)C(=O)N(C)[C@@H](CO)C(=O)N[C@@H](C)C(=O)N1)C(N)=O [Compound R3089, [mXylyl(2,10)]Ac-Chg-C-Phg-T-azaTrp-E-Y-(N-Me)S-A-C-Nvl-NH2] (Ac-[Chg]C[Phg]T[Trp(7-aza)]EY[NMeS]AC[Nva]-NH2; linker 2-10 via mXylylene) | > 15 |  | 
CCC[C@H](NC(=O)[C@@H]1CSCc2cccc(c2)CSC[C@H](NC(=O)[C@H](CCC)NC(C)=O)C(=O)N[C@@H](Cc2ccccc2)C(=O)N[C@@H]([C@@H](C)O)C(=O)N[C@@H](Cc2c[nH]c3ncccc23)C(=O)N[C@@H](CCC(=O)O)C(=O)N[C@@H](Cc2ccc(O)cc2)C(=O)N(C)[C@@H](CO)C(=O)N[C@@H](C)C(=O)N1)C(N)=O [Compound R3090, [mXyly1(2,10)]Ac-Nvl-C-F-T-azaTrp-E-Y-(N-Me)S-A-C-Nvl-NH2] (Ac-[Nva]CFT[Trp(7-aza)]EY[NMeS]AC[Nva]-NH2; linker 2-10 via mXylylene) | > 100 |  | 
CCC[C@H](NC(=O)[C@@H]1CSCc2cccc(c2)CSC[C@H](NC(=O)[C@H](CCC)NC(C)=O)C(=O)N[C@@H](c2ccccc2)C(=O)N[C@@H]([C@@H](C)O)C(=O)N[C@@H](Cc2c[nH]c3ccccc23)C(=O)N[C@@H](CCC(=O)O)C(=O)N[C@@H](Cc2ccc(O)cc2)C(=O)N(C)[C@@H](CO)C(=O)N[C@@H](C)C(=O)N1)C(N)=O [Compound R3091, [mXylyl(2,10)]Ac-Nvl-C-Phg-T-W-E-Y-(N-Me)S-A-C-Nvl-NH2] (Ac-[Nva]C[Phg]TWEY[NMeS]AC[Nva]-NH2; linker 2-10 via mXylylene) | 0.483 |  | 
CCC[C@H](NC(=O)[C@@H]1CSCc2cccc(c2)CSC[C@H](NC(=O)[C@H](CCC)NC(C)=O)C(=O)N[C@@H](c2ccccc2)C(=O)N[C@@H]([C@@H](C)O)C(=O)N[C@@H](Cc2ccccc2)C(=O)N[C@@H](CCC(=O)O)C(=O)N[C@@H](Cc2ccc(O)cc2)C(=O)N(C)[C@@H](CO)C(=O)N[C@@H](C)C(=O)N1)C(N)=O [Compound R3092, [mXylyl(2,10)]Ac-Nvl-C-Phg-T-F-E-Y-(N-Me)S-A-C-Nvl-NH2] (Ac-[Nva]C[Phg]TFEY[NMeS]AC[Nva]-NH2; linker 2-10 via mXylylene) | > 50 | > 50 | 
CCC[C@H](NC(=O)[C@@H]1CSCc2cccc(c2)CSC[C@H](NC(=O)[C@H](CCC)NC(C)=O)C(=O)N[C@H](C2CCCCC2)C(=O)N[C@@H]([C@@H](C)O)C(=O)N[C@@H](Cc2c[nH]c3ncccc23)C(=O)N[C@@H](CCC(=O)O)C(=O)N[C@@H](Cc2ccc(O)cc2)C(=O)N(C)[C@@H](CO)C(=O)N[C@@H](C)C(=O)N1)C(N)=O [Compound R3093, [mXylyl(2,10)]Ac-Nvl-C-(D-Chg)-T-azaTrp-E-Y-(N-Me)S-A-C-Nvl-NH2] (Ac-[Nva]C[dChg]T[Trp(7-aza)]EY[NMeS]AC[Nva]-NH2; linker 2-10 via mXylylene) | > 100 |  | 
CCC[C@H](NC(=O)[C@@H](NC(=O)[C@@H]1CCCN1C(=O)[C@H](Cc1ccc(O)cc1)NC(=O)[C@H](CCC(=O)O)NC(=O)[C@H](Cc1c[nH]c2ccc(OC)cc12)NC(=O)[C@H](Cc1ccc(O)cc1)NC(=O)[C@@H](NC(=O)[C@H](CC(N)=O)NC(=O)[C@H](CCC(=O)O)NC(=O)[C@H](Cc1ccc(O)cc1)NC(C)=O)C(C)(C)C)c1ccccc1)C(N)=O [Compound R3094, Ac-Y-E-N-Tbg-Y-(5-MeO)W-E-Y-P-Phg-Nvl-NH2] | > 100 |  | > 100
